{
  "source": "patent US20250065017A1",
  "about": "“Fractionating Extracellular Matrix to Modulate Bioactivity and the Host Response” (University of Pittsburgh - Of the Commonwealth System of …, priority 2014, published 2025)",
  "key": {"[1]": {"system": "primary rat bone marrow derived macrophages", "assay": "PGE2 secretion in primary BMDM", "assay_type": "cell-based", "conditions": "UBM hydrogel 0.5 mg/mL 48 hours; inhibitor pre-treatment 1 hour", "experimental": "Rat bone marrow mononuclear cells were matured to macrophages as previously described ([…], Forster O. Differentiation of rat bone marrow cells into macrophages under the influence of mouse L929 cell supernatant. J Leukoc Biol 1987;41(1):83-91). […] The cell pellet was resuspended in red blood cell (RBC) lysis buffer (155 mM NH4Cl, 10 mM KHCO3, 0.9% EDTA in distilled water) and incubated for 15 minutes on ice. Cell debris was removed by centrifugation and the cell pellet was resuspended in macrophage maturation media (DMEM high glucose, 10% heat inactivated FBS, 20% L929 fibroblast conditioned media, 0.5 mM MEM non-essential amino acids, 2 mM L-glutamine, 10 mM Hepes pH 7.4, 1% penicillin/streptomycin, 0.12% 50 mM 2-mercaptoethanol). Cells were seeded at a density of 1 million/mL in 6 well plates and incubated at 37° C./5% CO2. Media was changed every 2-3 days for 7 days. Matured bone marrow derived macrophages (BMDMs) were treated with 1 mL of StemPro® Accutase® (Invitrogen), incubated at 37° C. for 10 minutes, and detached with gentle pipetting. The cell suspension was collected and centrifuged for 5 mins at 1400 rpm. […] Secreted factor concentrations in the culture supernatants were determined using commercially available ELISA kits (PGE2, PGF2α, ENZO Life Sciences) and IL-1RA (R&D Systems)) according to the manufacturer's instructions."}, "Sprague Dawley rats": {"system": "Sprague Dawley rats", "assay": "Rat skeletal muscle injury model: macrophage phenotype immunolabeling", "assay_type": "in vivo", "experimental": "An established rodent skeletal muscle injury model was used to evaluate the effect of the COX1/2 inhibitor, Aspirin, on the ECM scaffold mediated constructive remodeling response. Briefly, three days prior to the surgical procedure, animals were randomly assigned to either the Aspirin treated (3 mg/mL Aspirin in drinking water) or control (vehicle) group. Bilateral 1.5 cm×1.5 cm partial thickness defects were created in the abdominal musculature. A size-matched pre-cast UBM hydrogel and an overlying 2×2 cm single layer sheet of UBM was then placed in the muscle defect area. The remodeling response was evaluated following 3, 7, 14, and 35 days by quantitative histomorphologic metrics (Wolf M T, Carruthers […], Crapo P M, Huber A, Burnsed O A, Londono R, Johnson […] and others. Polypropylene surgical mesh coated with extracellular matrix mitigates the host foreign body response. J Biomed Mater Res A 2013 and Wolf […], Brennan-Pierce E P, Johnson S A, Carruthers […] hydrogel derived from decellularized dermal extracellular matrix. Biomaterials 2012;33(29):7028-38), including characterization of macrophage phenotype and neo tissue deposition. Thirty-two female Sprague Dawley rats (350-400 g at implantation) were purchased from Harlan Laboratories. Rats were housed on a 12 hour light-dark cycle and fed standard laboratory chow and water ad libitum. Animals were randomly assigned to either the Aspirin treated or control (vehicle) group. Three days prior to surgery, animals in the Aspirin group had their drinking water supplemented with 3 mg/mL Aspirin which was continued throughout the experimental time course. […] Salicylates in whole blood were determined using the Salicylates Detection Kit from Neogen according to the manufacturer's instructions. […] CD206 and CD86: Cellular expression of markers of macrophage polarization (CD206 and CD86) were determined by immunolabeling using previously described methods ([…], Londono […], Carruthers […]. Preparation and characterization of a biologic scaffold from esophageal mucosa. Biomaterials 2013;34(28):6729-37). […]"}, "[2]": {"conditions": "vs non-Aspirin treated animals throughout the time course"}},
  "data": [
    {"smiles": "CC(=O)Oc1ccccc1C(=O)O", "note": "[Aspirin]", "values": [
      {"measurement": "PGE2 production", "setting": "[1]", "value": "reduced PGE2 production to baseline levels"},
      {"measurement": "M2:M1 ratio (CD68+CD206+ to CD68+CD86+ cells)", "setting": "Sprague Dawley rats; main effect for treatment, UBM implant", "value": "reduction in the M2:M1 ratio"},
      {"measurement": "M1 (CD86+) macrophages", "setting": "Sprague Dawley rats; [2]", "value": "increase in M1 (CD86+) macrophages"},
      {"measurement": "M2 (CD206+) macrophages", "setting": "Sprague Dawley rats; [2]", "value": "reduction in M2 (CD206+)"}
    ]}
  ]
}
